Tests used:
[1] = test system: patients with hypermenorrhea-associated gynecologic diseases; assay: Phase II clinical trial of JTT-751: safety evaluation (harmful events) in combined use with medicaments affecting the amount of menstrual bleeding; format: in vivo, human; settings: combined with carbazochrome sodium sulfonate, transamin or ethynylestradiol combinations
Procedure: This test was a three-stage safety and efficacy clinical trial at multi-facilities. The first stage was a pre-observation period (Day −40 to Day −1), the second stage was an administration period (Day 1 to Day 48) (efficacy and safety evaluation period), and the third stage was a post-observation period (Day 49 to Day 63) (efficacy and safety evaluation period). The safety evaluation and efficacy evaluation were performed by multi-facility collaboration, placebo control, random allocation, double-blind trial, and parallel group comparison test. […]
(1) Regarding the subjective symptoms and objective findings, when “expression of new abnormality” was observed between the start of the trial drug administration and nine weeks after Week 0 or at the end of examination after discontinuation as compared to before the start of the trial drug administration. […] (3) Regarding clinical examination, vital sign and standard 12-induced electrocardiogram, when the principal investigator or subinvestigator determined that an abnormality newly recognized between the start of the trial drug administration and nine weeks after Week 0 or at the end of examination after discontinuation, or aggravation of abnormality observed from before the start of the trial drug administration was a clinical problem. […]

[2] = test system: patients with hypermenorrhea and/or patients with hypermenorrhea-associated gynecologic diseases (iron-deficiency anemia patients); assay: Phase II clinical trial of JTT-751: C-terminal FGF23 value (cFGF23); format: in vivo, human
Procedure: This test was a three-stage safety and efficacy clinical trial at multi-facilities. The first stage was a pre-observation period (Day −40 to Day −1), the second stage was an administration period (Day 1 to Day 48) (efficacy and safety evaluation period), and the third stage was a post-observation period (Day 49 to Day 63) (efficacy and safety evaluation period). The safety evaluation and efficacy evaluation were performed by multi-facility collaboration, placebo control, random allocation, double-blind trial, and parallel group comparison test.
(1) Japanese patients who are 20 or more and less than 65 years old at the time of agreement and can visit an outpatient clinic (2) Patients who have an Hb value (measured using HemoCue® Hb 201 DM analyzer in the institute of clinical practice) of 7.0 g/dL or more and less than 11.0 g/dL on both the observation start date and Week 0, and the difference between the two days is 1.0 g/dL or less (3) Patients with a TIBC of 360 μg/dL or more or a serum ferritin value of less than 12 ng/mL on the observation start date
The administration period of the trial drug is seven weeks which starts from the next day of the Week 0 visit to the day before the Week 7 visit, provided that the trial drug is not taken on the scheduled Week 3 visit.
The blood hemoglobin value (Hb), the serum iron level, the serum ferritin value, the total iron-binding capacity (TIBC) and the transferrin saturation rate (TSAT), and the mean corpuscular volume (MCV) were each examined at the observation start date, Week 0, Week 3, Week 7, the end of administration and the consultation at nine weeks after Week 0; the hepcidin concentration (Hepcidin 25) and the serum soluble transferrin receptor concentration (sTfR) were each examined on Week 0, Week 3 and Week 7 and at the end of administration; and the C-terminal FGF23 value (cFGF23) and the intact FGF23 value (iFGF23) were each examined on Week 0 and Week 7 and at the end of administration.

[3] = 250 mg/day, End of administration
[4] = 500 mg/day, End of administration
[5] = 1000 mg/day, End of administration
[6] = 1500 mg/day, End of administration

Ferric citrate [JTT-751] was tested, and the “harmful event caused by combined use with medicaments affecting the amount of menstrual bleeding” value [1] was “no harmful event caused by the combined use was reported”, the “cFGF23, Mean” value [2, 3] was 214.72 RU/mL and the “cFGF23, Median” value [2, 3] was 158.50 RU/mL. For the same substance, the “cFGF23, Mean” value ([2]; 250 mg/day, Week 0 (baseline)) was 779.17 RU/mL, the “cFGF23, Median” value ([2]; 250 mg/day, Week 0 (baseline)) was 705.00 RU/mL and the “cFGF23, Mean” value ([2]; 250 mg/day, Week 7) was 214.72 RU/mL. For the same substance, the “cFGF23, Median” value ([2]; 250 mg/day, Week 7) was 158.50 RU/mL, the “cFGF23, Mean” value [2, 4] was 151.89 RU/mL and the “cFGF23, Median” value [2, 4] was 127.50 RU/mL. For the same substance, the “cFGF23, Mean” value ([2]; 500 mg/day, Week 0 (baseline)) was 1011.06 RU/mL, the “cFGF23, Median” value ([2]; 500 mg/day, Week 0 (baseline)) was 773.50 RU/mL and the “cFGF23, Mean” value ([2]; 500 mg/day, Week 7) was 151.89 RU/mL. The “cFGF23, Median” value ([2]; 500 mg/day, Week 7) was 127.50 RU/mL, the “cFGF23, Mean” value [2, 5] was 130.39 RU/mL and the “cFGF23, Median” value [2, 5] was 100.00 RU/mL. For the same substance, the “cFGF23, Mean” value ([2]; 1000 mg/day, Week 0 (baseline)) was 675.16 RU/mL, the “cFGF23, Median” value ([2]; 1000 mg/day, Week 0 (baseline)) was 564.00 RU/mL and the “cFGF23, Mean” value ([2]; 1000 mg/day, Week 7) was 130.39 RU/mL. The “cFGF23, Median” value ([2]; 1000 mg/day, Week 7) was 100.00 RU/mL, the “cFGF23, Mean” value [2, 6] was 114.92 RU/mL and the “cFGF23, Median” value [2, 6] was 94.20 RU/mL. For the same substance, the “cFGF23, Mean” value ([2]; 1500 mg/day, Week 0 (baseline)) was 842.52 RU/mL, the “cFGF23, Median” value ([2]; 1500 mg/day, Week 0 (baseline)) was 777.00 RU/mL and the “cFGF23, Mean” value ([2]; 1500 mg/day, Week 7) was 114.92 RU/mL. The “cFGF23, Median” value ([2]; 1500 mg/day, Week 7) was 94.20 RU/mL and the “C-terminal FGF23 value (cFGF23), time-dependent change” value ([2]; continuous administration) was “decreased along with the continuous administration”.
